Here are results for one compound from patent publication US5242942A, “Anticonvulsant fructopyranose cyclic sulfites and sulfates” (McNeilab, Inc., priority 1992, dated 1993).

By ED50 is commonly meant the midpoint of the dose-response relation.

The test system of one data set is carbonic anhydrase. The experiment in a line: carbonic anhydrase inhibition, 18O-exchange mass spectrometry, disrupted hepatocytes. Format: biochemical. The settings on record: 250 μM, disrupted male rat hepatocytes, 37° C., pH 7.4, 25 mM aqueous NaHCO3. As to the method: Compounds of formula (I) are also inhibitors of carbonic anhydrase, and as such, are useful in the treatment of glaucoma. Such activity may be determined by mass spectrometry using the ^18 O-exchange technique described by Dodgson and Forster in J. Appl. Physiol. 1983, 55, 1293. Specifically, this assay was conducted by first killing the male rats and then removing their livers. Their livers were placed in a cold physiological saline solution. The liver tissue was then minced with scissors and shaken in a protolytic enzyme solution to promote disassociation of the hepatocytes. The dissociated hepatocytes were then washed in a cold saline solution and used for determination of carbonic anhydrase activity.
[…] The continuous readout of the mass 44 peak gives a continuous record of the constancy of the pH of the reaction medium since the height of the mass 44 peak is very sensitive to pH. The pH of the medium was read from the pH meter and used to calibrate the mass 44 peaks at regular intervals.
An 8 mL glass chamber, with openings for a pH electrode and sample insertion, was used for continuous mass spectrophotometric measurement of C^16 O^16 O (mass 44) and C^16 O^18 O (mass 46) dissolved in aqueous bicarbonate buffer. […] The pH was constantly monitored by a combination glass pH electrode (Radiometer model gK 2641C). […]

The nature of the next data set: rat diuresis study. Format: in vivo, rat (male Wistar). The settings on record: 6.3 mg/kg PO, average of five animals. From the text:
Evidence for the inhibition of carbonic anhydrase by compounds of the formula (I) can also be obtained by a diuresis study, such as described by A. Weiner in Goodman and Gilman's The Pharmacological Basis of Therapeutics, 8th ed.; Goodman Gilman, A.; Rall, T. W.; Nies, A. S.; Taylor, P., Eds.; Pergamon Press: New York, 1990; pp 716-718. An increase in urine akalinity accompanied with an increase in water intake and urine output provides an indirect indication of carbonic anhydrase inhibition activity. Male Wistar rats having a weight of 250-300 g were dosed orally (PO) and housed in cages that allowed for the quantitative measure of fluid intake and urine output. Water intake and urine output were measured at 24 hours versus control, whereas urine pH, obtained via pH meter, was measured at 4 and 24 hours versus control. The results of this study, which are the average of five animals, are reported below in Table III. […] Such data is also an indication of the usefulness of the compounds of formula (I) as diuretics in the treatment of hypertension, congestive heart failure and other types of edema. The determination of suitable dosages for such compounds for the treatment of hypertension and congestive heart failure and other types of edema is within the skill of the art.

The next data set has as its system Total Acid Output. Briefly: pylorus-ligated rat test, gastric antisecretory activity. Format: in vivo, rat (male Charles River Sprague-Dawley derived). The following applies: PO, read-out: ED50, inhibition of Total Acid Output. Here is the method:
The gastric antisecretory activity of the compounds shown in Table II was determined by the pylorus-ligated rat test described by Shay et al. in Gastroenterol. 1954, 26, 906. In this method, male Charles River Sprague-Dawley derived rats weighing 150-300 grams were deprived of food but not water for 18-24 hours prior to use. Water was withheld during the experiment, however. The rats were weighed, lightly anesthetized with ether and the pylorus ligated according to the method of Shay et al., supra. The treatment or vehicle control was then administered intraperitoneally (IP) or orally (PO). When administered by the IP route, the administration was done 30 minutes before ligation. When administered by the PO route, the administration was done prior to ligation (about 1/2 to 3 hours before). Rats were housed two per cage and sacrificed with carbon dioxide 3 hours after ligation. Their stomachs were removed, rinsed, and contents emptied into a graduated centrifuge tube. The tubes were centrifuged, the volume of gastric juice was recorded, and any samples obviously contaminated by feces, food or blood were eliminated. A 1 mL aliquot of gastric juice was titrated with 0.1N NaOH to a pH of 7.0-7.4. The volume of gastric juice secreted, the acid concentration, and the product of the volume times the concentration, i.e. the total amount of acid secreted, were measured. The total acid output was calculated by multiplying the volume of gastric juices collected times the hydrogen ion concentration (amount of NaOH added to a sample to reach a pH of 7.0-7.4) and dividing that value by 10. The mean value of the total acid output for a control group of rats was then subtracted from the mean value of the total acid output for the group of rats tested at the same dose. That value was then divided by the mean value of total acid output for the control group and the resulting number was multiplied by 100 to provide a Percent Inhibition value, which values are reported in Table II. The […] was determined statistically as the dose at which a 50% inhibition would be realized.

In the case of `CC1(C)O[C@H]2[C@@H]3OS(=O)(=O)O[C@@H]3CO[C@@]2(COS(N)(=O)=O)O1` [Example 1, 2,3-O-(1-Methylethylidene)-4,5-O-sulfonyl-β-D-fructopyranose Sulfamate], in the data set on carbonic anhydrase, the “inhibition of all hepatocyte carbonic anhydrase” value is “Maximal inhibition”. Further, the “Urine pH” value is reported as 8.99 in “rat diuresis study” (4 hours, control 6.98) and 7.03 in the data set “rat diuresis study” (24 hours, control 6.43). In “rat diuresis study” (24 hours, control 15.0), the “Water Intake” value came to 24.0 mL. The “Urine Output” value in “rat diuresis study” (24 hours, control 17.6) was found to be 28.3 mL. Moreover, in the data set with Total Acid Output, the ED50 worked out at 20 mg/kg.
